Where a name gives a salt, the structure may show the parent alone. Read-outs that look alike come from different tables or passages of the source.
System: rat aorta
Assay: reduction of calcium-induced contraction (response to calcium chloride) of spirally cut strips of rat aorta in vitro
Format: cell-based
Procedure: The ability of the compounds to inhibit the movement of calcium into the cell is shown by their effectiveness in reducing the response of isolated […] to an increase in calcium ion concentration in vitro. The test is performed by mounting spirally cut strips of rat aorta with one end fixed and the other attached to a force transducer. The tissue is immersed in a bath of physiological saline solution containing potassium ions at a concentration of 45 millimolar and no calcium. Calcium chloride is added to the bath with a pipette to give a final calcium ion concentration of 2 millimolar. The change in tension caused by the resulting contraction of the tissue is noted. The bath is drained and replaced with fresh saline solution and, after 45 minutes, the test is repeated with the particular compound under test present in the saline solution. The concentration of compound required to reduce the response by 50% is recorded.

[1] = 0.75 h; isolated rat aorta strips; 45 millimolar potassium; 2 millimolar calcium; retest after 45 minutes with compound; read-out: molar concentration of the compounds required to reduce the response by 50% (IC50)
[2] = ranking among the tested Examples
[3] = read-out: molar concentration of the compounds required to reduce the response by 50% (IC50); isolated rat aorta strips; 45 millimolar potassium; 2 millimolar calcium; retest after 45 minutes with compound
[4] = isolated rat aorta strips; 45 millimolar potassium; 2 millimolar calcium; retest after 45 minutes with compound; read-out: molar concentration of the compounds required to reduce the response by 50% (IC50)

Compound	IC50 [1] [nM]	activity ranking by IC50 (the smaller the concentration the more active the compound) [2]	also measured
CCOC(=O)C1=C(COCCNC)NC(C)=C(C(=O)OC)C1c1ccccc1Cl.O=C(O)C(=O)O (stereo not drawn) [Example 1, 4-(2-chlorophenyl)-2-[2-(methylamino)ethoxymethyl]-3-ethoxycarbonyl-5-methoxycarbonyl-6-methyl-1,4-dihydropyridine, oxalate salt]	3.2	most active compounds	–
CCOC(=O)C1=C(COCCNC)NC(C)=C(C(=O)OC)C1c1ccccc1 (stereo not drawn) [Example 2]	32	–	–
CCOC(=O)C1=C(COCCNC)NC(C)=C(C(=O)OC)C1c1ccccc1F (stereo not drawn) [Example 3]	20	–	–
CCOC(=O)C1=C(COCCNC)NC(C)=C(C(=O)OC)C1c1ccccc1OC (stereo not drawn) [Example 4]	63	–	–
CCOC(=O)C1=C(COCCNC)NC(C)=C(C(=O)OC)C1c1cccc(Cl)c1 (stereo not drawn) [Example 5]	40	–	–
CCOC(=O)C1=C(COCCNC)NC(C)=C(C(=O)OC)C1c1cccc(O)c1Cl (stereo not drawn) [Example 6]	200	–	–
CCOC(=O)C1=C(COCCNC)NC(C)=C(C(=O)OC)C1c1c(F)cccc1Cl (stereo not drawn) [Example 7]	13	–	–
CCOC(=O)C1=C(COCCNCc2ccccc2)NC(C)=C(C(=O)OC)C1c1ccccc1Cl (stereo not drawn) [Example 8]	50	–	–
CCOC(=O)C1=C(COCCN)NC(C)=C(C(=O)OC)C1c1ccccc1Cl (stereo not drawn) [Example 9]	3.2	most active compounds	–
CCOC(=O)C1=C(COCCNCCOC)NC(C)=C(C(=O)OC)C1c1ccccc1Cl (stereo not drawn) [Example 10]	25	–	–
CCOC(=O)C1=C(COCCN)NC(C)=C(C(=O)OC)C1c1ccccc1Cl.O=C(O)/C=C\C(=O)O (stereo not drawn) [Example 11, 2-[(2-aminoethoxy)methyl]-4-(2-chlorophenyl)-3-ethoxycarbonyl-5-methoxycarbonyl-6-methyl-1,4-dihydropyridine maleate]	–	most active compounds	IC50 [3]: 3.2 nM
CCOC(=O)C1=C(COCCN)NC(C)=C(C(=O)OC)C1c1ccccc1Cl (stereo not drawn) [Example 12, 2-[2-aminoethoxy)methyl]-4-(2-chlorophenyl)-3-ethoxycarbonyl-5-methoxycarbonyl-6-methyl-1,4-dihydropyridine maleate]	–	most active compounds	IC50 [4]: 3.2 nM
CCOC(=O)C1=C(COCCN)NC(C)=C(C(=O)OC)C1c1cccc(Cl)c1Cl (stereo not drawn) [Example 13]	6.3	–	–
CCOC(=O)C1=C(COCCN)NC(C)=C(C(=O)OC)C1c1ccccc1 (stereo not drawn) [Example 14]	160	–	–
CCOC(=O)C1=C(COCCN)NC(C)=C(C(=O)OC)C1c1ccccc1F (stereo not drawn) [Example 15]	18	–	–
CCOC(=O)C1=C(COCCNCC(N)=O)NC(C)=C(C(=O)OC)C1c1ccccc1Cl (stereo not drawn) [Example 19, 2-(2-{[4-(2-Chlorophenyl)-3-ethoxycarbonyl-5-methoxycarbonyl-6-methyl-1,4-dihydropyrid-2-yl]methoxy}ethylamino)acetamide]	4	–	–
CCOC(=O)C1=C(COCCNCC(=O)NC)NC(C)=C(C(=O)OC)C1c1ccccc1Cl (stereo not drawn) [Example 20]	22	–	–
CCOC(=O)C1=C(COCCN)NC(C)=C(C(=O)OC)C1c1ccccc1Cl.O=C(O)/C=C\C(=O)O (stereo not drawn) [Example 22, 2-[(2-aminoethoxy)methyl]-4-(2-chlorophenyl)-3-ethoxycarbonyl-5-methoxycarbonyl-6-methyl-1,4-dihydropyridine maleate]	–	most active compounds	IC50 [3]: 3.2 nM
CCOC(=O)C1=C(COCCNC)NC(C)=C(C(=O)OC)C1c1ccccc1Cl.O=C(O)/C=C\C(=O)O (stereo not drawn) [Example 23, 4-(2-Chlorophenyl)-2-[2-(N-methylamino)ethoxymethyl]-3-ethoxycarbonyl-5-methoxycarbonyl-6-methyl-1,4-dihydropyridine maleate]	–	most active compounds	IC50 [4]: 3.2 nM
CCOC(=O)C1=C(COCCNC)NC(C)=C(C(=O)OC)C1c1ccccc1Cl.O=C(O)/C=C\C(=O)O (stereo not drawn) [Example 24, 4-(2-chlorophenyl)-2-[2-(N-methylamino)ethoxymethyl]-3-ethoxycarbonyl-5-methoxycarbonyl-6-methyl-1,4-dihydropyridine maleate]	–	most active compounds	IC50 [4]: 3.2 nM
